Assay results reported in patent publication US20260035452A1 (THE UNIVERSITY OF BIRMINGHAM, priority 2022, published 2026).
No end group written: not given here.

Columns and labels:
[1] = system: hPBMC on cytokine-stimulated HDBEC monolayers; assay: Human PBMC static adhesion / transendothelial migration assay; format: cell-based; settings: co-treatment plus TNF-α
Method: FIG. 10: Human dermal blood endothelial cells (HDBEC) were treated with: IL-17 vehicle (Ctrl), IL-17 or FM-0410 (100 ng/ml), alone or in combination with TNF-α (100 U/ml) for 24 h. Cells were washed, gated in their totality and singlet before the identification of IL-17Rs (RA and RC) (A, B), ICAM (C) and VCAM (D) expression. Histogram values (expressed as MIF) indicate the total positive cells (A-D). In (E) are shown phase-contrast micrographs of confluent monolayers of untreated or treated (as reported before) HDBEC. Total adhesion (expressed as INT/mm^2, F) and % of transmigration (G) are calculated with Image Pro programme (DataCell, Finchampstead). Inflammatory supernatants from all experimental conditions were assayed by Elisa for IL-6 (H) expressed in pg/ml. Data were presented as means±S.D. of n=3 healthy donors. […]
Human PBMC transendothelial migration assay: Prior to beginning the assay, HDBEC monolayers were washed with 37° C. medium 199 (Thermo Fisher Scientific) supplemented with 0.15% w/v BSA (MilliporeSigma) to remove any residual cytokines. hPBMC (1×10^6) were co-cultured with cytokine-stimulated HDBEC monolayers at 37° C. for 20 min. […] Total hPBMC adhesion and mean percentage transmigration were calculated for each well.

[2] = system: Human dermal blood endothelial cells (HDBEC); assay: HDBEC stimulation (flow cytometry, IL-6 Elisa); format: cell-based; settings: 24 h
Method: FIG. 10: Human dermal blood endothelial cells (HDBEC) were treated with: IL-17 vehicle (Ctrl), IL-17 or FM-0410 (100 ng/ml), alone or in combination with TNF-α (100 U/ml) for 24 h. Cells were washed, gated in their totality and singlet before the identification of IL-17Rs (RA and RC) (A, B), ICAM (C) and VCAM (D) expression. Histogram values (expressed as MIF) indicate the total positive cells (A-D). In (E) are shown phase-contrast micrographs of confluent monolayers of untreated or treated (as reported before) HDBEC. Total adhesion (expressed as INT/mm^2, F) and % of transmigration (G) are calculated with Image Pro programme (DataCell, Finchampstead). Inflammatory supernatants from all experimental conditions were assayed by Elisa for IL-6 (H) expressed in pg/ml. Data were presented as means±S.D. of n=3 healthy donors. Statistical analysis was conducted by one-way ANOVA followed by Bonferroni's for multiple comparisons. ^#P≤0.05, ^##P≤0.01, ^###P≤0.001, ^####P≤0.0001 vs Ctrl group; *P≤0.05 vs TNF-α+IL-17 group; ^∘P≤0.05, ^∘∘∘P≤0.001, ^∘∘∘∘P≤0.0001 vs TNF-α group.
Human dermal blood endothelial cells (HDBEC): Primary human dermal blood endothelial cells (HDBECs) were purchased from PromoCell and cultured in the manufacturer's recommended endothelial cell growth medium MV (PromoCell, Heidelberg, Germany). HDBECs were seeded onto 12-well tissue culture plates after 4 passages at a seeding density yielding confluent monolayers. HDBEC monolayers were washed in endothelial cell growth medium MV warmed to 37° C. and stimulated with IL-17 or FM-0410 (100 ng/ml) alone or in a combination with TNF-α (100 U/ml) for 24 h at 37° C. Cells were stimulated for 24 h, before staining with IL-17Rs (RA or RC) or ICAM/VCAM adhesion receptors using a Flow cytometry assay. Supernatants were collected and measured to evaluate IL-6 or TNF-α levels.
Flow Cytometry: HDBEC, collected after 24 h of treatment, were washed with PBS without Ca^2+ and Mg^2+ containing 25 mM lactose for 20 min at room temperature with occasional mixing. Cells were, then, incubated with FcR blocking agents (Miltenyi) in PBS without Ca^2+ and Mg^2+ containing lactose before staining cells with antibodies IL-17 Receptor A (1:100; clone 133617) and IL-17 Receptor C (1:100; clone 309822). Moreover, HDBEC cells were also stained with ICAM (BBIG-V3; 1:50, APC, BD Biosciences) and VCAM (3E2; 1:50, FITC, BD Biosciences). Protein expression was analysed by flow cytometry on a Dako CyAn (Beckman Coulter, High Wycombe, U.K.), and data were analysed using MRFIow and FlowJo software operation. The unspecific binding of antibodies was quantified by using corresponding isotype controls.
Elisa assay: The levels of IL-6 at 24 h were measured using commercially available enzyme-linked immunosorbent assay kits (ELISA kit, R&D System, Milan, Italy) according to the manufacturer's instructions. Briefly, 100 μl of supernatants, diluted standards, quality controls, and dilution buffer (blank) were applied on a plate with the monoclonal antibody for 2 h. After washing, 100 μl of biotin-labeled antibody was added and incubation continued for 1 h. […] The addition of 100 μl of the substrate and stop solution represented the last steps before the reading of absorbance (measured at 450 nm) on a microplate reader. Antigen levels in the samples were determined using a standard curve and expressed as pg/ml.

[3] = system: neutrophils; assay: Transwell chemotaxis assay; format: cell-based, human
Method: The cells migration after IL-17 (10-500 ng/ml), FM-0410 (10-500 ng/ml) or N-Formylmethionine-leucyl-phenylalanine (fmlp; 10^−6 M) treatment was quantified using CountBright™ Absolute Counting Beads. Data were presented as means±S.D. of n=3 healthy donors. Statistical analysis was conducted by one-way ANOVA followed by Bonferroni's for multiple comparisons. ^#P≤0.05, ^##P≤0.01, ^###P≤0.001, ^####P≤0.0001 vs Ctrl group; ^+P≤0.05 vs IL-17. Neutrophil isolation: Blood was taken according to local research ethics committee approval (QMERC2014/61). Informed consent was provided according to the Declaration of Helsinki. All blood samples were collected on the day of experiments from healthy donors and immediately used. Each condition has 3 biological replicates (3 different donors). Neutrophils were isolated using a double density histopaque gradient and hypotonic lysis as described previously. Transwell chemotaxis assay: Chemotaxis was assessed using a transwell assay. […] After 2 hours at 37° C., neutrophils were collected from the bottom wells and quantified by flow cytometry using CountBright™ Absolute Counting Beads (Thermofisher, Rugby, UK) as previously described.

[4] = 100 ng/ml in combination with TNF-α (100 U/ml)

Ac-LEKILVSVGATAVTPIVHHVAC [FM-0410]
total number of adhered hPBMC [1]: significant increase
transmigrated hPBMC [1]: significant increase
ICAM expression [2, 4]: upregulation
IL-17RA receptor expression [2, 4]: No effects
IL-17RC receptor expression [2, 4]: No effects
VCAM expression [2, 4]: upregulation
IL-6 levels (marker of cell activation) ([2]; peptide co-stimulation with TNF-α): upregulation
chemotactic activity compared to positive control fmlp (10^−6 M) ([3]; 500 ng/ml): almost similar to positive control fmlp
chemotactic effect on neutrophils ([3]; 10-500 ng/ml, vs Control group): concentration-dependent chemotactic effect
